Reference: patent US20070149508A1, “Six membered heteroaromatic inhibitors targeting resistant kinase mutations” (TargeGen, Inc., priority 2005, published 2007)
Structures can show the parent of a compound that is named as a salt.

How the values were obtained:
Abl (T315I) = molecular target: T1, Abl (T315I) (Homo sapiens, UniProt P00519, T315I); assay: Abl (T315I) Kinase Assay (KinaseGlo luminescent detection of residual ATP); assay type: biochemical; settings: Abl (T315I) IC50 (nM), Abl (T315I) (Upstate, 17 ng/well), Abltide 100 uM, ATP 500 nM, 60 minutes at 37° C.
T1 construct: purchased Upstate
Method: The assay was performed similarly to the Abl kinase assay. Abl (T315I) (Upstate, 17 ng/well); Abltide substrate (100 uM) and ATP (500 nM) comprised the reaction mixture. Compound was similarly diluted, and the reaction plate was incubated for 60 minutes at 37° C.

Abl kinase = Abl kinase (Homo sapiens, UniProt P00519); assay: biochemical; settings: Abl IC50 (nM), Abl kinase (Invitrogen, 20 ng/well), Abltide 100 μM, ATP 500 nM, 37° C. for 60 minutes, top concentration 10 uM
Method: Kinase activity was assessed using luminescent detection (KinaseGlo, Promega) of residual ATP concentration in reaction mixtures containing optimized levels of kinase, substrate, ATP, compound and appropriate buffers. Kinase, substrate and ATP concentrations were determined per the supplier's recommendations. Briefly, this involved running concentration curves to select for optimal signal.
The reaction mixture (50 ul/well) consisted of Abl kinase (Invitrogen, 20 ng/well); Abltide peptide substrate (Upstate, 100 μM) and ATP (500 nM). Each compound was evaluated at a top concentration of 10 uM with 1:3 dilution steps, 10 dilution steps total. Compound was diluted into DMSO and transferred to the reaction plate, resulting in a final DMSO concentration of 2%. This amount of DMSO was determined not to interfere with the enzyme. The reaction was conducted at 37° C. for 60 minutes. The degree of inhibition was assessed using IC50 determinations, which were obtained using GraphPad Prism4.

Row | IC50 (Abl (T315I)) [nM] | IC50 (Abl kinase) [nM] | Compound
1 | 214 | 432 | Nc1nc2ccc(/C=C/c3cnc(Nc4ccc(S(=O)(=O)N5CCCC(O)C5)cc4)nc3)cc2s1 (stereo not shown) [(E)-1-(4-(5-(2-(2-aminobenzo[d]thiazol-6-yl)vinyl)pyrimidin-2-ylamino)phenylsulfonyl)piperidin-3-ol]
2 | 176 | 6.2 | O=S(=O)(NC1CCNCC1)c1ccc(Nc2ncc(/C=C/c3cccc4[nH]ncc34)cn2)cc1 [4-{5-[2-(1H-Indazol-4-yl)-vinyl]-pyrimidin-2-ylamino}-N-piperidin-4-yl-benzenesulfonamide hydrochloride]
